Laboratory results from ChEMBL document CHEMBL4308846, “How Selective Are Pharmacological Inhibitors of Cell-Cycle-Regulating Cyclin-Dependent Kinases?” (J Med Chem, 2018).
Active and inactive are the calls of the source. The rule behind the calls is not given here.

Tests used:
[1] = tested on: HCT-116; experiment: Induction of cell cycle arrest in human HCT116 cells assessed as accumulation at G1 phase at 0.03 to 0.8 uM after 24 hrs by propidium iodide-staining based flow cytometry; type: functional
[2] = tested on: HCT-116; experiment: Induction of cell cycle arrest in human HCT116 cells assessed as accumulation at G2/M phase at 0.03 to 0.8 uM after 24 hrs by propidium iodide-staining based flow cytometry; type: functional
[3] = tested on: HCT-116; experiment: Induction of cell cycle arrest in human HCT116 cells assessed as accumulation at G2/M phase at 5.9 to […] after 24 hrs by propidium iodide-staining based flow cytometry; type: functional
[4] = biological target: CDK2/Cyclin A2 (Homo sapiens, UniProt P24941)
[5] = biological target: Cyclin-dependent kinase 1/cyclin B1 (Homo sapiens, UniProt P06493); experiment: biochemical
[6] = biological target: Cyclin-dependent kinase 2/cyclin E1 (Homo sapiens, UniProt P24941); experiment: biochemical
[7] = biological target: Cyclin-dependent kinase 4/cyclin D1 (Homo sapiens, UniProt P11802); experiment: biochemical
[8] = biological target: Cyclin-dependent kinase 5/CDK5 activator 1 (Homo sapiens, UniProt Q00535); experiment: biochemical
[9] = biological target: CDK7/Cyclin H/MNAT1 (Homo sapiens, UniProt P50613); experiment: biochemical
[10] = biological target: CDK9/cyclin T1 (Homo sapiens, UniProt P50750); experiment: biochemical
CDK9/cyclin T1, sequence (O60563 whole entry): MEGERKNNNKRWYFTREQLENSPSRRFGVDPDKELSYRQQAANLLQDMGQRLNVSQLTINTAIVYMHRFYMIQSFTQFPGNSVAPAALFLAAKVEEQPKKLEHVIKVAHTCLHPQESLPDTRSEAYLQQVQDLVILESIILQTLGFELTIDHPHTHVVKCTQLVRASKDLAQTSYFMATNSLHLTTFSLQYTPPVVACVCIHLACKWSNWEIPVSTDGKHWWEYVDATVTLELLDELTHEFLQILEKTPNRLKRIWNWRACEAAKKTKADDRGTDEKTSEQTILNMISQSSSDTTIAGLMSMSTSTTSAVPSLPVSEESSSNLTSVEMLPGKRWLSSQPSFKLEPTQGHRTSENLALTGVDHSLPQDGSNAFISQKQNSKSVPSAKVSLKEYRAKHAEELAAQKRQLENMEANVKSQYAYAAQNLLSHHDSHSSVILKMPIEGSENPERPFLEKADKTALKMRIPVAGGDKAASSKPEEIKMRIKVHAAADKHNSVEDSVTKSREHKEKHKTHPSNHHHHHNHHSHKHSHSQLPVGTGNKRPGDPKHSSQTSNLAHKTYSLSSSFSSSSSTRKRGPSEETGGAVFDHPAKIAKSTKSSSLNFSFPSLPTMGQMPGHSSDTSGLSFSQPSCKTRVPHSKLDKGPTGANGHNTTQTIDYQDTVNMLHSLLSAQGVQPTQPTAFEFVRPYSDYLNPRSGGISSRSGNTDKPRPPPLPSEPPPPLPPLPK
CDK9/cyclin T1, sequence (P50750 whole entry): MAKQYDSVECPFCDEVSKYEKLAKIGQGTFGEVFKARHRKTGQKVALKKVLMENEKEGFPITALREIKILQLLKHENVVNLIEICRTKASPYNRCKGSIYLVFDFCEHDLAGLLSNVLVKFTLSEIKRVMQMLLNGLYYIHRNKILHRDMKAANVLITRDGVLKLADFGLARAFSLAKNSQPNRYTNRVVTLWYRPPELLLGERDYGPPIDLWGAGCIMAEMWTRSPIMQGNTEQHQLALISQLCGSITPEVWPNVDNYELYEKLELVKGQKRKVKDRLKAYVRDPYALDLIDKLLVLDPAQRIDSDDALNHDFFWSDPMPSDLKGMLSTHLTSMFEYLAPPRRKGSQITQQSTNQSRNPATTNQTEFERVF

Cyclin-dependent kinase 5/CDK5 activator 1, sequence (Q00535 whole entry): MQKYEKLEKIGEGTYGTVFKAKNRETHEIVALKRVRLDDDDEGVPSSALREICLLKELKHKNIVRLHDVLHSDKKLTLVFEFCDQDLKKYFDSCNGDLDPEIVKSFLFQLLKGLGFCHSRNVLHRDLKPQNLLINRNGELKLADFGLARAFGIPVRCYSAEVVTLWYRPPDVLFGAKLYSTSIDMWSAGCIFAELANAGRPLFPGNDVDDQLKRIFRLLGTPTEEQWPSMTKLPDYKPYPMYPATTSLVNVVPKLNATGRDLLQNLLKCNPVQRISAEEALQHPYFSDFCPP
Cyclin-dependent kinase 5/CDK5 activator 1, sequence (Q15078 whole entry, further chain): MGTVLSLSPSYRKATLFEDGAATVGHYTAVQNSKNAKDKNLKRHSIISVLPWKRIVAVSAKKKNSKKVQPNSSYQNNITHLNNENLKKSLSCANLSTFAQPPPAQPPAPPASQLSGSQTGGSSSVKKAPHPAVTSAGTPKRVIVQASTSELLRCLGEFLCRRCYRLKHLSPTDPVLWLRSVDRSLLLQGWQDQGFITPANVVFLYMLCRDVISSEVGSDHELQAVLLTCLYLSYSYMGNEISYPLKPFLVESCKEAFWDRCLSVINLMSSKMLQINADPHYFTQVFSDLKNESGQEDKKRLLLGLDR
Cyclin-dependent kinase 4/cyclin D1, sequence (P11802 whole entry): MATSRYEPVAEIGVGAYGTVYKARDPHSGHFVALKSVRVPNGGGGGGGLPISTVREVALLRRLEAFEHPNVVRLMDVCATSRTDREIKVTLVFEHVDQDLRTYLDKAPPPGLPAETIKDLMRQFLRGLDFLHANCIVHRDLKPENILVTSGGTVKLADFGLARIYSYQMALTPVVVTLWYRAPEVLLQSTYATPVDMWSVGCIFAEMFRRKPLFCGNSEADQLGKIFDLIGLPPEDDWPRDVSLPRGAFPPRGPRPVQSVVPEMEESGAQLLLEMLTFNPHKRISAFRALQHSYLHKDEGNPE
Cyclin-dependent kinase 4/cyclin D1, sequence (P24385 whole entry, further chain): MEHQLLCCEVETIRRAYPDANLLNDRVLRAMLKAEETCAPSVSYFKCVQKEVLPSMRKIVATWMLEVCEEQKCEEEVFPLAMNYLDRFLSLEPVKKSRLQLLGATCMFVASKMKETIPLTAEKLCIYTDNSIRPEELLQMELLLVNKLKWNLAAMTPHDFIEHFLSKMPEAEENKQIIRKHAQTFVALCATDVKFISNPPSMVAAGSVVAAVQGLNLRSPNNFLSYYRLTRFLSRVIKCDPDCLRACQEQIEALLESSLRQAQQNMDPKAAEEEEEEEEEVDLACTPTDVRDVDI
CDK7/Cyclin H/MNAT1, sequence (P51946 whole entry): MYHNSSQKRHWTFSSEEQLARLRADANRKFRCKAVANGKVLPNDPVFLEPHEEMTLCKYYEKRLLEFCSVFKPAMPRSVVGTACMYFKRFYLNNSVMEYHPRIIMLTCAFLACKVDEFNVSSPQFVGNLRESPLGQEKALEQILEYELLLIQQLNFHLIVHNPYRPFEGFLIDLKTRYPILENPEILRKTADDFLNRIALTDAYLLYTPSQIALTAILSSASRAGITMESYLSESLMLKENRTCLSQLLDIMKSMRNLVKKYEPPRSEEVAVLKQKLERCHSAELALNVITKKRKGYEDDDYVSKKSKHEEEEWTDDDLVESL
CDK7/Cyclin H/MNAT1, sequence (P50613 whole entry): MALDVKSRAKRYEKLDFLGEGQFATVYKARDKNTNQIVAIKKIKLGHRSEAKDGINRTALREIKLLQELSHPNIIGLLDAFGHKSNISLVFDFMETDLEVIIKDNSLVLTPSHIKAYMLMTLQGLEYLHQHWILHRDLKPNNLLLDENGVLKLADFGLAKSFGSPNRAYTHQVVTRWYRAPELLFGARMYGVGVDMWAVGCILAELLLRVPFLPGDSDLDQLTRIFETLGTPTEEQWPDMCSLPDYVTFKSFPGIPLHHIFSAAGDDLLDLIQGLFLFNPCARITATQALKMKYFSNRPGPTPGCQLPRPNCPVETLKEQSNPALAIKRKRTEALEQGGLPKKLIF
CDK7/Cyclin H/MNAT1, sequence (P51948 whole entry, further chain): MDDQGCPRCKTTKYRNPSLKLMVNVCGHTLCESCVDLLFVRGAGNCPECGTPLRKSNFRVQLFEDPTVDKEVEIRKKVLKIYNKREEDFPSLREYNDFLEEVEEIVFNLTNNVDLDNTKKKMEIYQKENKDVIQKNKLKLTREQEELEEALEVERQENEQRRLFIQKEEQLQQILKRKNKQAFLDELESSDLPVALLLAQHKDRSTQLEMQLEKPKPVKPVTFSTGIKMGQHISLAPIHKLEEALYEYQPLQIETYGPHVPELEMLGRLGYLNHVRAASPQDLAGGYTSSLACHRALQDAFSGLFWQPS
Cyclin-dependent kinase 1/cyclin B1, sequence (P06493 whole entry): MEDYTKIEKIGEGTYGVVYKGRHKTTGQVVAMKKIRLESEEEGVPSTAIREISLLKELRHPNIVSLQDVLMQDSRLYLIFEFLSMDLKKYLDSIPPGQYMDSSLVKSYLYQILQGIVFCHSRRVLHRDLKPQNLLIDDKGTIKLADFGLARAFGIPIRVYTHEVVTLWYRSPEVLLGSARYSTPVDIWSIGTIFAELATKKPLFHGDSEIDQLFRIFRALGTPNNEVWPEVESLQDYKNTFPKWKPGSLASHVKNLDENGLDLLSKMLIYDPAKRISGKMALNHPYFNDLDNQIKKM
Cyclin-dependent kinase 1/cyclin B1, sequence (P14635 whole entry, further chain): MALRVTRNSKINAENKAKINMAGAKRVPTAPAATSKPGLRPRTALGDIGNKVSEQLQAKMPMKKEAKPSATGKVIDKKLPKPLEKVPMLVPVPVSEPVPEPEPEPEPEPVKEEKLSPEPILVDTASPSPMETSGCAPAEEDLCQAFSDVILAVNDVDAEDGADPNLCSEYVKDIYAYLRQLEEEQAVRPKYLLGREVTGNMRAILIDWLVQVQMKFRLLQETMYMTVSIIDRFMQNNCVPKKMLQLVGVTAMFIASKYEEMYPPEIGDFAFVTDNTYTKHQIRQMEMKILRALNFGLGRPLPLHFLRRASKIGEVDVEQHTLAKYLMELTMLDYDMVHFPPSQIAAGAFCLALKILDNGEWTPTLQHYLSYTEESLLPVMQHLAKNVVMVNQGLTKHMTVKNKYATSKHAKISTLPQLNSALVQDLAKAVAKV

Row | Compound | Activity [1] | Activity [2] | Activity [3] | IC50 [4] [nM] | IC50 [5] [µM] | IC50 [6] [nM] | IC50 [7] [µM] | IC50 [8] [nM] | IC50 [9] [nM] | IC50 [10] [µM]
1 | CCN1CCN(Cc2ccc(Nc3ncc(F)c(-c4cc(F)c5nc(C)n(C(C)C)c5c4)n3)nc2)CC1 [ABEMACICLIB] | Active | <=30% | – | – | – | – | – | – | – | –
2 | CC[C@H](CO)Nc1nc(Nc2cccc(-c3ccccn3)c2)c2ncn(C(C)C)c2n1 | – | – | <=30% | 290 | 3.7 | 93 | > 20 | 215 | 822 | 8
